Reference: patent US10654855B2 (priority 2007, dated 2020)

Target: AKT1 (PKBα) (Homo sapiens (Human), UniProt P31749)
Conditions: read-out: In vitro PKBα Mean IC50; AKT1/PKBα active enzyme; values marked * tested once only

AKT1 (PKBα), sequence (P31749 whole entry): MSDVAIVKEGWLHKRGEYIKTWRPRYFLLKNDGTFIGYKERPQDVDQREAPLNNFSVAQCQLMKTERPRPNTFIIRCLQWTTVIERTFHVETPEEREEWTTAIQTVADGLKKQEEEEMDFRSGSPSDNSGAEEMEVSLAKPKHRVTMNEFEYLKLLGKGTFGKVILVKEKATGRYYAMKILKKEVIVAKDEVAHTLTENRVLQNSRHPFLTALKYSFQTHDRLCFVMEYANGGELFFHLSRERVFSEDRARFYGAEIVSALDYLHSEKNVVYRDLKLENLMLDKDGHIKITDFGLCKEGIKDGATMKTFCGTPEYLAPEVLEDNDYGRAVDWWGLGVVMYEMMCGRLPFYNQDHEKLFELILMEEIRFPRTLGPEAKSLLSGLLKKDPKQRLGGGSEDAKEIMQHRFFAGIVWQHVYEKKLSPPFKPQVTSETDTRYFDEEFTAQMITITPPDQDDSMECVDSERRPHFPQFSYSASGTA

Q: For C[C@H](NC(=O)C1(N)CCN(c2ncnc3[nH]ccc23)CC1)c1ccc(C#N)cc1 [Example 39, 4-amino-N-[(1S)-1-(4-cyanophenyl)ethyl]-1-(7H-pyrrolo[2,3-d]pyrimidin-4-yl)piperidine-4-carboxamide], which IC50 is on record?
A: 50 nM
